Values of other authors as cited in patent US5348748A, “Pulsatile once-a-day delivery systems for minocycline” (American Cyanamid Company, priority 1993, dated 1994).

Tests used:
[1] = tested on: wide range of gram-negative and gram-positive bacteria; details: PDR 43rd Ed.
[2] = taken with food

Compound: CN(C)c1ccc(O)c2c1C[C@H]1C[C@H]3[C@H](N(C)C)C(=O)C(C(N)=O)=C(O)[C@@]3(O)C(=O)C1=C2O [minocycline, 7-dimethylamino-6-deoxy-6-demethyltetracycline]
- susceptibility of organisms in words [1]: susceptible
- absorption in the lower gastrointestinal tract in words: reduced absorption in the lower gastrointestinal tract
- half life [2]: 14 to 16 h
